Measured values as given in ChEMBL document CHEMBL4673406, “Discovery and Preclinical Evaluation of BMS-986242, a Potent, Selective Inhibitor of Indoleamine-2,3-dioxygenase 1” (ACS Med Chem Lett, 2021).

Tests used:
[1] = target: T1, Nuclear receptor subfamily 1 group I member 2 (Homo sapiens, UniProt O75469); assay: Transactivation of PXR (unknown origin); type: ADME
T1 sequence (O75469 whole entry): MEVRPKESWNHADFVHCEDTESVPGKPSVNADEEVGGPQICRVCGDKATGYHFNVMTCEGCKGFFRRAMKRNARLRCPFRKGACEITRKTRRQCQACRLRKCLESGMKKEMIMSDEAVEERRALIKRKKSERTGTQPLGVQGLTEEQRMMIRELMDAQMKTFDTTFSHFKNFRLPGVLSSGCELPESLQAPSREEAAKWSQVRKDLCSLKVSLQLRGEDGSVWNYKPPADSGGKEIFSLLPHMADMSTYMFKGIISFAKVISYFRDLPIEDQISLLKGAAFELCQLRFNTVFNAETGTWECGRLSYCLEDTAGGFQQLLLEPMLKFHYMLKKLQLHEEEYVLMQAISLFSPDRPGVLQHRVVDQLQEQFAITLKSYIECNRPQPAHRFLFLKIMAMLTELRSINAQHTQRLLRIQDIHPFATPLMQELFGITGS

[2] = AUC in rat at 6 mg/kg, po; type: ADME, organism-based; design: dose 6 mg/kg; conditions: in vivo
[3] = AUC (0 to 24 hrs) in nu/nu mouse xenografted with human SK-OV-3 cells measured in tumor at 10 mg/kg, po qd by uHPLC-MS/MS analysis; type: ADME, organism-based; design: time < 24 hr, route oral, dose 10 mg/kg
[4] = Volume of distribution at steady state in dog at 1 mg/kg, iv; type: ADME, organism-based, Canis lupus familiaris; conditions: in vivo
[5] = Metabolic stability in cynomolgus monkey hepatocytes assessed as CYP450-mediated compound metabolism by measuring half life; type: ADME, cell-based, Macaca fascicularis, Hepatocyte
[6] = AUC in dog at 1 mg/kg, iv; type: ADME, organism-based, Canis lupus familiaris; design: dose 1 mg/kg; conditions: in vivo
[7] = AUC in rat at 0.5 mg/kg, iv; type: ADME, organism-based; design: dose 0.5 mg/kg; conditions: in vivo
[8] = Half life in dog at 1 mg/kg, iv; type: ADME, organism-based, Canis lupus familiaris; conditions: in vivo
[9] = AUC (0 to 24 hrs) in nu/nu mouse xenografted with human SK-OV-3 cells measured in tumor at 30 mg/kg, po qd by uHPLC-MS/MS analysis; type: ADME, organism-based; design: time < 24 hr, route oral, dose 30 mg/kg
[10] = Toxicity in rat assessed as effect on cardiovascular system by telemetry; conditions: in vivo
CYP450 = CYP450 (Homo sapiens, UniProt P04798+P05177+P05181+P08684+P10632+P10635+P11509+P11712+P13584+P20813+P20815+P20853+P24462+P24903+P33260+P33261+P51589+P78329+P98187+Q02928+Q08477+Q16678+Q16696+Q5TCH4+Q6VVX0+Q7Z449+Q8TAV3+Q96SQ9+Q9HB55); assay: Inhibition of human CYP450; type: ADME, protein assay
hERG = hERG (Homo sapiens, UniProt Q12809); assay: Inhibition of human ERG at 10 uM by patch clamp method relative to control
hERG, sequence (Q12809 whole entry): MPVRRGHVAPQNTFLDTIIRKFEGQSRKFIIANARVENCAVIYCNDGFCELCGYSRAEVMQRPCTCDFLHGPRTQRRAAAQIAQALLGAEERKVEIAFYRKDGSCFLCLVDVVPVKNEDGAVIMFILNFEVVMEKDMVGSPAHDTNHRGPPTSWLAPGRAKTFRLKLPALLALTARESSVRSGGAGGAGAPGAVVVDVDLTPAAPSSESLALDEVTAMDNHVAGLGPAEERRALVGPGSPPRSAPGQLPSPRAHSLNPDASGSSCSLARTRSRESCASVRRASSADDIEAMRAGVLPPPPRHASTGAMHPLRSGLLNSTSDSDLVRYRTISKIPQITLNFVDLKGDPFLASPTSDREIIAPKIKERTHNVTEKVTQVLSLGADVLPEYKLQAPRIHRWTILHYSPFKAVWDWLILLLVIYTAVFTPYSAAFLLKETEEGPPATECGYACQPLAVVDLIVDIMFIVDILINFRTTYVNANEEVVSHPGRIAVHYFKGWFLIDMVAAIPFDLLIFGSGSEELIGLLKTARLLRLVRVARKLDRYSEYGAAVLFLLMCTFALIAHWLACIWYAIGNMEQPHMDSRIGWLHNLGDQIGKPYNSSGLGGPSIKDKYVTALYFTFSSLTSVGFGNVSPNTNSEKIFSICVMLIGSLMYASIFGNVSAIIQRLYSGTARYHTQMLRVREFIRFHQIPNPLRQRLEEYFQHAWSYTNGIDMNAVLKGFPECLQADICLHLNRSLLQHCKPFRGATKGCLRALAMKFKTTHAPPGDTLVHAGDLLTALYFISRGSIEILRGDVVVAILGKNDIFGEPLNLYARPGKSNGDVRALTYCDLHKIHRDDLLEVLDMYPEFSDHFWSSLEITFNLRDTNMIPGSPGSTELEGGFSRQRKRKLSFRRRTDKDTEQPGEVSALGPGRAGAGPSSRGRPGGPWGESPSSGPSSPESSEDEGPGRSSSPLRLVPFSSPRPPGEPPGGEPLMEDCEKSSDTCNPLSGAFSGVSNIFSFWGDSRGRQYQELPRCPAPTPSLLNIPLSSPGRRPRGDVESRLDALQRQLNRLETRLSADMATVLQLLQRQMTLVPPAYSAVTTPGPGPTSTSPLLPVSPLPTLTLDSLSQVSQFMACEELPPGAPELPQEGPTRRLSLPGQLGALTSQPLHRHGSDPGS

Cytochrome P450 2C19 = Cytochrome P450 2C19 (Homo sapiens, UniProt P33261); assay: Inhibition of human CYP2C19; type: ADME
Cytochrome P450 2C19, sequence (P33261 whole entry): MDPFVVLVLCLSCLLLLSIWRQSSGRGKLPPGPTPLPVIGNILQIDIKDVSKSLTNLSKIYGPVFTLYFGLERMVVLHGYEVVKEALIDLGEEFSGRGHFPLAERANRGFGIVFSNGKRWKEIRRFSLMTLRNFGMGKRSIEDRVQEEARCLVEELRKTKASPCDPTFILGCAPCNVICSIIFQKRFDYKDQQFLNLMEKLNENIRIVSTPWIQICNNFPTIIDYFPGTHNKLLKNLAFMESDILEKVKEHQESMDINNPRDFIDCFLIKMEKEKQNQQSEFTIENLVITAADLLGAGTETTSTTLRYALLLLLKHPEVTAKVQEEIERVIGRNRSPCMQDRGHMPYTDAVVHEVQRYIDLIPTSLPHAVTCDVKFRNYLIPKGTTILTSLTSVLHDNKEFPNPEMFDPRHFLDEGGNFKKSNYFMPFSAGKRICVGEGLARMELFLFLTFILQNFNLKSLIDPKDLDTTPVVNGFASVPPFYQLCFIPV

[11] = Half life in cynomolgus monkey at 1 mg/kg, iv; type: ADME, organism-based, Macaca fascicularis; conditions: in vivo
Cytochrome P450 2C8 = target: T2, Cytochrome P450 2C8 (Homo sapiens, UniProt P10632); assay: Inhibition of human CYP2C8; type: ADME
T2 sequence (P10632 whole entry): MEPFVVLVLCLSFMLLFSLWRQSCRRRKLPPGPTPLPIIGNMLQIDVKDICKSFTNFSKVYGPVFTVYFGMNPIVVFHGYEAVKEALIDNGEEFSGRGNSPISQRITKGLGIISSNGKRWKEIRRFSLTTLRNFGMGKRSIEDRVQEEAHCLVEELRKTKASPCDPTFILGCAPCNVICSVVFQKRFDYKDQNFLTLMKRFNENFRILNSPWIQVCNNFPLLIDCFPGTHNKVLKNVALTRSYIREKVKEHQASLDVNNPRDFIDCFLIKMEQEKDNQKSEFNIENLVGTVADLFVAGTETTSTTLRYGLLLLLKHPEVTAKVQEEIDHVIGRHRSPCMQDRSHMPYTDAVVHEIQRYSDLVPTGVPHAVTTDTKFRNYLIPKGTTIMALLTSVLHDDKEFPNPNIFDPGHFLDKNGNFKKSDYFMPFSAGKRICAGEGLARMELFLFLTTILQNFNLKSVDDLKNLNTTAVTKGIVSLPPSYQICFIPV

[12] = Protein binding in human plasma assessed as free fraction; type: ADME, cell-free
[13] = target: Indoleamine 2,3-dioxygenase 1 (Mus musculus) (UniProt P28776); assay: In vivo inhibition of IDO1 in nu/nu mouse xenografted with human SK-OV-3 cells assessed as reduction in kynurenine level at 10 mg/kg, po qd by HPLC-MS/MS analysis relative to control; type: functional, organism-based
Indoleamine 2,3-dioxygenase 1 (Mus musculus), sequence (P28776 whole entry, looked up): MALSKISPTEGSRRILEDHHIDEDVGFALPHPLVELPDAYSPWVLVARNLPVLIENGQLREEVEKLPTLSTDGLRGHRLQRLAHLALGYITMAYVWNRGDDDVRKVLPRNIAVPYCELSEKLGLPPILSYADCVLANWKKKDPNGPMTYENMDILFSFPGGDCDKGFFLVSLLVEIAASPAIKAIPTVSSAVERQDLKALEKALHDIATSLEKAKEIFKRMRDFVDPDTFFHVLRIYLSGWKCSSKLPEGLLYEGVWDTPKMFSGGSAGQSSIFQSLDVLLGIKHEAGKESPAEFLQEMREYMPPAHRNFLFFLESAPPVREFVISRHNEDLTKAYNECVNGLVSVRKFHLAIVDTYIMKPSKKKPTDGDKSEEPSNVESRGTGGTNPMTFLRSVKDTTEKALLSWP

In the case of `C[C@@H](NC(=O)c1ccc(Cl)cc1)[C@H]1CC[C@@H](c2ccnc3ccc(F)cc32)CC1`, the EC50 [1] is reported as greater than 50 µM, the AUC [2] is reported as 28.2 µM·h and the AUC at 24 h [3] is reported as 21.1 µM·h. For the same molecule, the Vdss [4] was 3.87 L/kg, the half-life [5] was 2 min and the AUC [6] was 8.7 µM·h. It also gave an AUC [7] of 5.6 µM·h, a t1/2 [8] of 19 min and an AUC at 24 h [9] of 61 µM·h. The Activity [10] was “Non-Toxic”, the IC50 (CYP450) was greater than 15 µM and the inhibition at 10 µM (hERG) was 87%. The IC50 (Cytochrome P450 2C19) was 3.37 µM, the t1/2 [11] was 2 min and the IC50 (Cytochrome P450 2C8) was 1.39 µM. The Fu [12] was less than 0.3% and the inhibition [13] was 58%.
